Test results reported in US10973778B2, “Using edible carriers to produce Curcuma extracts for oral and topical use” (California Northstate College of Pharmacy, LLC, priority 2012, dated 2021).

Assay: UV absorption spectra of sunscreen agents and Curcuma longa L. extract
Assay type: physicochemical
Details: absorption spectrum in methanol; for wavelength above which absorption is practically zero / practically no absorption: 0.5-20 ug/ml depending on agent (FIGS. 1A-1D); for wavelength above which absorption is low / very low: octocrylene 0.5 ug/ml, avobenzone 5 ug/ml (FIGS. 1B, 1E)
Excerpt: FIGS. 1A-1F compare the absorption spectra of representative current state-of-the-art sunscreen agents to the absorption spectra of Curcuma longa L., according to some embodiments.
The representative sunscreen agents show peaks in the absorption spectrum between the wavelengths of 290 nm to 400 nm which is the range of interest. Ideally, a desired agent would absorb energy across the entire range of 290 nm to 400 nm. In FIGS. 1A-1E, for example, a variety of peak positions are seen in the representative agents, where a high (desirable) absorption can be shown at the wavelength of the peak but there is usually a low or zero absorption at the trough, which is, of course, undesirable. Even combinations of sunscreen agents with peaks and troughs may leave areas within the wavelength range that are not covered, leaving wavelengths for which there is little or no UV protection, an undesirable situation.

SMILES | wavelength above which absorption is practically zero / practically no absorption | wavelength above which absorption is low / very low
CC1CC(OC(=O)c2ccccc2O)CC(C)(C)C1 (centres unmarked) [homosalate] | about 340 nm | –
COc1ccc(C(=O)CC(=O)c2ccc(C(C)(C)C)cc2)cc1 [avobenzone] | – | about 390 nm
CCCCC(CC)COC(=O)C(C#N)=C(c1ccccc1)c1ccccc1 (centres unmarked) [octocrylene] | about 380 nm | about 370 nm
COc1ccc(C(=O)c2ccccc2)c(O)c1 [oxybenzone] | about 380 nm | –
